Data published in patent publication US7772245B2, “Inhibitors of histone deacetylase” (Miikana Therapeutics, Inc., priority 2005, dated 2010).

Tests used:
HCT116 cells = experiment: Whole cell cytotoxicity assay: Sulforhodamine B; type: cell-based; details: Homo sapiens, HCT-116; 100 μM compound; 48 hours incubation with drug; Sulforhodamine B staining; read-out: % Inhibition of HCT116 cell growth @ 100 μM
HDAC = experiment: In vitro fluorescent histone deacetylase assay (Biomol HDAC fluorescent activity kit, HeLa cell nuclear extract); type: biochemical; details: 100 μM compound; HeLa cell nuclear extract as source of HDAC activity; 50 μM substrate, 10 min at room temperature
In short: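 HeLa nuclear extract as HDAC source with fluorogenic substrate at 50 μM final, reacting 10 min at room temperature before stop. Compounds serially diluted in assay buffer, final DMSO ≤2%; fluorescence read at ex 355 nm / em 460 nm.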

For `CN1CCN(Cc2ccc(-c3ccc4[nH]c5c(c4c3)CN(c3ncc(C(=O)NO)cn3)CC5)cc2)CC1` [Example 106, N-hydroxy-2-{8-[4-((4-methylpiperazin-1-yl)methyl)phenyl]-1,3,4,5-tetrahydro-2H-pyrido[4,3-b]indol-2-yl}pyrimidine-5-carboxamide], the inhibition at 100 µM (HCT116 cells) was 98.3% and the “% Inhibition of HDAC @ 100 μM” value (HDAC) was 99.9%.
In the case of `O=C(NO)c1cnc(N2CCc3[nH]c4ccc(-c5ccc(CO)cc5)cc4c3C2)nc1` [Example 107, N-hydroxy-2-{8-[4-(hydroxymethyl)phenyl]-1,3,4,5-tetrahydro-2H-pyrido[4,3-b]indol-2-yl}pyrimidine-5-carboxamide], the inhibition at 100 µM (HCT116 cells) is reported as 92.7% and the “% Inhibition of HDAC @ 100 μM” value (HDAC) is reported as 99.9%.
For `CN1CCN(Cc2ccc(-c3ccc4[nH]c5c(c4c3)CN(c3ncc(C(=O)NO)cn3)CC5)o2)CC1` [Example 108, N-hydroxy-2-{8-[5-((4-methylpiperazin-1-yl)methyl)-2-furyl]-1,3,4,5-tetrahydro-2H-pyrido[4,3-b]indol-2-yl}pyrimidine-5-carboxamide], the inhibition at 100 µM (HCT116 cells) was 99.1% and the “% Inhibition of HDAC @ 100 μM” value (HDAC) was 100%.
For `O=C(NO)c1cnc(N2CCc3[nH]c4ccc(-c5ccc(CN6CCOCC6)o5)cc4c3C2)nc1` [Example 109, N-hydroxy-2-{8-[5-(morpholin-4-yl)methyl-2-furyl]-1,3,4,5-tetrahydro-2H-pyrido[4,3-b]indol-2-yl}pyrimidine-5-carboxamide], the inhibition at 100 µM (HCT116 cells) was 91.7% and the “% Inhibition of HDAC @ 100 μM” value (HDAC) was 100%.
For `CN1CCN(Cc2ccc(-c3ccc4[nH]c5c(c4c3)CN(c3ncc(C(=O)NO)cn3)CC5)s2)CC1` [Example 110, N-hydroxy-2-{8-[5-((4-methylpiperazin-1-yl)methyl)-thien-2-yl]-1,3,4,5-tetrahydro-2H-pyrido[4,3-b]indol-2-yl}pyrimidine-5-carboxamide], the inhibition at 100 µM (HCT116 cells) was 98.7% and the “% Inhibition of HDAC @ 100 μM” value (HDAC) was 100%.
For `O=C(NO)c1cnc(N2CCc3[nH]c4cc(Br)ccc4c3C2)nc1` [Example 112, N-hydroxy-2-(7-bromo-1,3,4,5-tetrahydro-2H-pyrido[4,3-b]indol-2-yl)pyrimidine-5-carboxamide], the inhibition at 100 µM (HCT116 cells) was 98.7% and the “% Inhibition of HDAC @ 100 μM” value (HDAC) was 99.9%.
In the case of `COc1ccc2[nH]c3c(c2c1)CCN(c1ncc(C(=O)NO)cn1)CC3` [Example 113, N-hydroxy-2-(9-methoxy-1,4,5,6-tetrahydroazepino[4,5-b]indol-3(2H)-1-yl)pyrimidine-5-carboxamide], the inhibition at 100 µM (HCT116 cells) is reported as 98.7% and the “% Inhibition of HDAC @ 100 μM” value (HDAC) is reported as 100%.
`O=C(NO)c1cnc(N2CCc3[nH]c4ccc(-c5cccc(CN6CCOCC6)c5)cc4c3CC2)nc1` [Example 116, N-hydroxy-2-(9-[3-(morpholin-4-ylmethy)phenyl]-1,4,5,6-tetrahydroazepino[4,5-b]indol-3(2H)-1-yl)pyrimidine-5-carboxamide] was tested, and the inhibition at 100 µM (HCT116 cells) was 98.6% and the “% Inhibition of HDAC @ 100 μM” value (HDAC) was 100%.
For `CN1CCN(Cc2cccc(-c3ccc4[nH]c5c(c4c3)CCN(c3ncc(C(=O)NO)cn3)CC5)c2)CC1` [Example 117, N-hydroxy-2-(9-[3-((4-methylpiperazin-1-yl)methy)phenyl]-1,4,5,6-tetrahydroazepino[4,5-b]indol-3(2H)-1-yl)pyrimidine-5-carboxamide], the inhibition at 100 µM (HCT116 cells) was 98.6% and the “% Inhibition of HDAC @ 100 μM” value (HDAC) was 99.8%.
With `O=C(NO)c1cnc(N2CCc3c(sc4ccccc34)C2)nc1` [Example 118, 2-(3,4-dihydro[1]benzothieno[2,3-c]pyridin-2(1H)-yl)-N-hydroxypyrimidine-5-carboxamide] the inhibition at 100 µM (HCT116 cells) was 98.9% and the “% Inhibition of HDAC @ 100 μM” value (HDAC) was 99.7%.
With `O=C(NO)c1cnc(N2CCc3c(oc4ccccc34)C2)nc1` [Example 119, 2-(3,4-dihydro[1]benzofuro[2,3-c]pyridin-2(1)-yl)-N-hydroxypyrimidine-5-carboxamide] the inhibition at 100 µM (HCT116 cells) was 98.6% and the “% Inhibition of HDAC @ 100 μM” value (HDAC) was 99.3%.
`O=C(NO)c1cnc(N2CCc3[nH]c4cc(-c5ccccc5)ccc4c3C2)nc1` [Example 120, N-hydroxy-2-{7-phenyl-1,3,4,5-tetrahydro-2H-pyrido[4,3-b]indol-2-yl}pyrimidine-5-carboxamide] was tested, and the inhibition at 100 µM (HCT116 cells) was 97.6% and the “% Inhibition of HDAC @ 100 μM” value (HDAC) was 99.6%.
`O=C(NO)c1cnc(N2CCc3[nH]c4ccccc4c(=O)c3C2)nc1` [Example 122, N-hydroxy-2-(10-oxo-3,4,5,10-tetrahydrobenzo[b]-1,6-naphthyridin-2(1H)-yl)pyrimidine-5-carboxamide] was tested, and the inhibition at 100 µM (HCT116 cells) was 44.4% and the “% Inhibition of HDAC @ 100 μM” value (HDAC) was 100%.
For `CN1CCN(Cc2ccc3[nH]c4c(c3c2)CN(c2ncc(C(=O)NO)cn2)CC4)CC1` [Example 123, N-hydroxy-2-{8-[(4-methylpiperazin-1-yl)methyl]-1,3,4,5-tetrahydro-2H-pyrido[4,3-b]indol-2-yl}pyrimidine-5-carboxamide], the inhibition at 100 µM (HCT116 cells) was 97% and the “% Inhibition of HDAC @ 100 μM” value (HDAC) was 100%.
